Where no end group is shown, it is not given here.
Legend:
Assay type in all cases: cell-based, human
circulating CD8+ T cells [1] = assay: Ex vivo combinatorial HLA-A2 multimer (MMr) staining of PBMCs; conditions: for frequency of circulating MMr+ CD8+ T cells (in words): HLA-A2+ recent-onset T1D and healthy subjects; for median frequency in peripheral blood: T1D patients, fraction of CD8+ T cells
Procedure: All peptides were synthesized at >90% purity (Synpeptides). HLA-A2 MMrs were produced as described (Leisner et al., 2008) and staining performed in the presence of 50 nM dasatinib (Lissina et al., 2009), as described (Culina et al., 2018). Briefly, cryopreserved PBMCs were magnetically depleted of CD8^− cells (StemCell Technologies), stained with the combinatorial MMr panels (Hadrup et al., 2009) and acquired using a FACSAria III cytometer.

[2] = system: pancreas-infiltrating cells of HLA-A2+ T1D patients; assay: In-situ HLA-A2 MMr staining on pancreas sections; conditions: 2 HLA-A2+ T1D cases, nPOD tissue sections
Procedure: In-situ staining was performed as described (Culina et al., 2018). Unfixed, frozen sections were dried for 2 h, loaded with 1 μg of MMrs overnight at 4° C., washed gently with phosphate-buffered saline and fixed in 2% paraformaldehyde for 10 min. After a further wash, endogenous peroxidase activity was blocked with 0.3% H2O2. Sections were then incubated serially with rabbit anti-phycoerythrin, horseradish peroxidase-conjugated swine anti-rabbit and 3,3′-diaminobenzidine tetrahydrochloride substrate (ThermoFisher). After a final wash, sections were counterstained with hematoxylin, dehydrated via sequential passages in 95-100% ethanol and xylene, mounted and analyzed using a Nikon Eclipse Ni microscope with NIS-Elements Analysis D software v4.40.

circulating CD8+ T cells [3] = assay: Ex vivo HLA-A3 multimer (MMr) staining of PBMCs; conditions: for positive hits for the HLA-A3 restriction: HLA-A3+ T1D and healthy donors
Procedure: HLA-A3 MMrs were produced and used as described (Gonzalez-Duque, Cell Metab 2018). Each peptide-HLA-A3 complex was used at a final concentration of 8-27 nM and conjugated with fluorochrome-labeled streptavidin at a 1:4 ratio. The concentration of each fluorescent MMr was corrected for the variable staining index of each streptavidin, in order to obtain a distinct double-MMr+ population for each fluorochrome pair. Compensations were set using fluorescence-minus-one samples (i.e. omitting one streptavidin at a time).
PBMCs were thawed at 37° C. and immediately diluted in pre-warmed AIM-V medium. Following centrifugation and one additional wash in AIM-V, PBMCs were counted and rested in the presence of 50 nM dasatinib for 30 min at 37° C. to prevent internalization of T-cell receptors before magnetic depletion of CD8^− cells (StemCell Technologies). Staining was performed for 20 min at 20° C. in […] PBS-dasatinib for 10^7 cells with combinatorial double-coded MMr panels, followed, without washing, by CD3-APC-H7 (RRID AB_1645475), CD8-PE-Cy7 (AB_396852), CD45RA-FITC (AB_395879), CCR7-BV421 (AB_2728119) monoclonal antibodies and Live/Dead Aqua (ThermoFisher) staining at 4° C. for 20 min. After one wash, cells were acquired using a FACSAria III cytometer. […] Flow cytometry data were analyzed with FlowJo v10 and Graphpad Prism 7.0 software. Cells were sequentially gated on small lymphocytes, singlets, live cells (Live/Dead Aqua^−), CD3^+CD8^+ T cells and total PE^+, PE-CF594^+, APC^+, BV650^+, BV711^+ and BV786^+MMr^+ T cells. Using Boolean operators, these latter gates allowed to selectively visualize each double-MMr^+ population by including only those events positive for the corresponding fluorochrome pair. For example, SCG3166-174 MMr^+ cells (PE^+PE-CF594^+) were visualized by gating on events that were PE^+PE-CF594^+APC^−BV650^−BV711^−BV786^−. Events negative for all MMr fluorochromes (PE^−PE-CF594^−APC^−BV650^−BV711^−BV786^−) were represented in the same PE/PE-CF-594 dot plot to set the double-MMr^+ gate. CD45RA and CCR7 staining was subsequently visualized by gating on these MMr^+ cells.

[4] = HLA-A2+ healthy donors, screening

CHGA344-352: HLA-A2-restricted HLA-eluted β-cell peptide from chromogranin A, maps to the WE-14 neuropeptide (KMDQLAKEL)
cognate naïve CD8+ T-cell repertoire (frequency 1-50/10^6 CD8+ T cells, clustered MMr staining, in ≥50% of individuals) (circulating CD8+ T cells [1]; [4]): validated

FLSGAVNRL
cognate naïve CD8+ T-cell repertoire (frequency 1-50/10^6 CD8+ T cells, clustered MMr staining, in ≥50% of individuals) (circulating CD8+ T cells [1]; [4]): validated | frequency of circulating MMr+ CD8+ T cells (in words) (circulating CD8+ T cells [1]): particularly high and clustered

IAPP15-17/IAPP5-10: peptide splice product from fusion of IAPP15-17 and IAPP5-10, HLA-A2-restricted (VALKLQVFL)
recognition by circulating CD8+ T cells, donors (circulating CD8+ T cells [1]; [4]): 1 of 6 | median frequency in peripheral blood (circulating CD8+ T cells [1]): 1.6×10^−6 | in-situ MMr staining of pancreas sections [2]: MMr^+ cells could be detected

ISL1276-284: HLA-A2-restricted HLA-eluted peptide from insulin gene enhancer protein ISL1 (GLQANPVEV)
cognate naïve CD8+ T-cell repertoire (frequency 1-50/10^6 CD8+ T cells, clustered MMr staining, in ≥50% of individuals) (circulating CD8+ T cells [1]; [4]): validated | median frequency in peripheral blood (circulating CD8+ T cells [1]): 7.2×10^−6 | in-situ MMr staining of pancreas sections [2]: MMr^+ cells could be detected

KCNK16129-137: HLA-A2-restricted HLA-eluted β-cell peptide from KCNK16 (ALLGIPLNV)
cognate naïve CD8+ T-cell repertoire (frequency 1-50/10^6 CD8+ T cells, clustered MMr staining, in ≥50% of individuals) (circulating CD8+ T cells [1]; [4]): validated

KIF1A860-868: HLA-A3-restricted islet peptide from KIF1A (LLYPVPLVH)
positive hits for the HLA-A3 restriction (circulating CD8+ T cells [3]): positive hits

KIF1A1347-1355: HLA-A2-restricted HLA-eluted β-cell peptide from kinesin family member 1A (VLDTSVAYV)
cognate naïve CD8+ T-cell repertoire (frequency 1-50/10^6 CD8+ T cells, clustered MMr staining, in ≥50% of individuals) (circulating CD8+ T cells [1]; [4]): validated

PCSK230-38: HLA-A2-restricted HLA-eluted β-cell peptide from proprotein convertase 2 (FTNHFLVEL)
cognate naïve CD8+ T-cell repertoire (frequency 1-50/10^6 CD8+ T cells, clustered MMr staining, in ≥50% of individuals) (circulating CD8+ T cells [1]; [4]): validated

PNMA250-58: HLA-A3-restricted islet peptide candidate, not validated (RLLGKIFRK)
validation as CD8+ T-cell epitopes (circulating CD8+ T cells [3]; second validation round, PBMCs from T1D and healthy donors): single exception

PTPRN576-580/708-711: spliced peptide derived from the fusion of two non-contiguous IA-2 sequences, HLA-A3 (SVLLTRLAK)
positive hits for the HLA-A3 restriction (circulating CD8+ T cells [3]): identified

RLKPSLVGK
positive hits for the HLA-A3 restriction (circulating CD8+ T cells [3]): positive hits

SCG3166-174: HLA-A3-restricted islet peptide from secretogranin III (AVFDKIVSK)
positive hits for the HLA-A3 restriction (circulating CD8+ T cells [3]): positive hits

UCN31-9: HLA-A2-restricted HLA-eluted β-cell peptide from urocortin-3 leader sequence (MLMPVHFLL)
cognate naïve CD8+ T-cell repertoire (frequency 1-50/10^6 CD8+ T cells, clustered MMr staining, in ≥50% of individuals) (circulating CD8+ T cells [1]; [4]): validated | frequency of circulating MMr+ CD8+ T cells (in words) (circulating CD8+ T cells [1]): particularly high and clustered

UCN346-56: HLA-A3-restricted islet peptide from urocortin-3 (GQWEDASLLSK)
positive hits for the HLA-A3 restriction (circulating CD8+ T cells [3]): positive hits

YLQGQRLDNV
cognate naïve CD8+ T-cell repertoire (frequency 1-50/10^6 CD8+ T cells, clustered MMr staining, in ≥50% of individuals) (circulating CD8+ T cells [1]; [4]): validated

ZnT8186-184: positive control islet peptide (VAANIVLTV; UniProt Q8IWU4 186-194, looked up, fragment) [reference compound]
in-situ MMr staining of pancreas sections [2]: observed

— patent US12492230B2, “Antigenic peptides deriving from secretogranin V and uses thereof for the diagnosis and treatment of type 1 diabetes” (INSERM (Institut National de la Santé et de la Recherche …, priority 2018, dated 2025)
